Measured values published in patent US20160075689A1, “POLYMERASE, ENDONUCLEASE, AND HELICASE INHIBITORS AND METHODS OF USING THEREOF” (THE BOARD OF TRUSTEES OF THE UNIVERSITY OF ARKANSAS, priority 2013, published 2016).
pIC50: −log10 of the molar value.

Tests used:
[1] = molecular target: T1, EndoG (Homo sapiens, UniProt Q14249); test: Plasmid incision assay; assay type: biochemical; details: agarose gel, FIG. 9
T1 sequence (Q14249 49-297): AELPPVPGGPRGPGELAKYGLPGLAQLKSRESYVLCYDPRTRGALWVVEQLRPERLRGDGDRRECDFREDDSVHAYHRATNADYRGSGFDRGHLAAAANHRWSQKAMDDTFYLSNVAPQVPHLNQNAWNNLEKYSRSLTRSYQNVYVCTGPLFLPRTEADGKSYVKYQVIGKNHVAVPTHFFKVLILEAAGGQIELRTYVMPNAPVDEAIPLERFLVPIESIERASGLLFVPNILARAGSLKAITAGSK
Description: A reaction mixture was prepared containing 0.5 μg pECFP plasmid DNA, 2 mM CaCl2, 5 mM MgCl2, 10 mM Tris-HCl, pH 7.4, 0.5 mM dithiothreitol. The test compound [50 ng in DMSO (1 μl)] was added. Recombinant EndoG was then added to the final concentration of 200 ng/ml and the reaction was incubated for 1 h at 37° C. The reaction was terminated by adding 2 μl of 10 mM Tris-HCl, pH 7.4, 1% SDS, 25 mM EDTA, 7.2 mM bromophenol blue. The samples were run in 1% agarose gel in Tris-acetate-EDTA buffer (40 mM Tris, 20 mM acetic acid, 1 mM EDTA, pH 8), at 7 V/cm for 35 min, and DNA was stained with ethidium bromide. An EagleEye scanning densitometer (Stratagene, La Jolla, Calif.) was utilized to quantify the relative amount of endonuclease-treated plasmid DNA present in a covalently-closed circular (supercoiled) DNA, open circular DNA, or linear DNA, or in a digested form.

[2] = test system: LDH; test: LDH activity in NRK-52E cell extract; assay type: biochemical; details: 0.1 μM and 10 μM
Description: As a follow up to Example 8, the effects of the EndoG inhibitors PNR-3-80 and PNR-3-82, at 0.1 μM and 10 μM each, on the activities of four other enzymes including RNase A, protease, LDH, and SOD in NRK-52E cell extract were examined. NRK-52E cells were grown to ˜80% confluence in […]. The medium was aspirated and the cells were rinsed with ice cold 1×PBS, pH 7.4. The cells were lysed in 50 mM Tris-HCl, pH 7.4, 150 mM NaCl, 1% Triton X-100 for 10 min on ice and then briefly sonicated. Cell debris was removed by centrifugation at 13,000×g for 10 min at 4° C. The supernatant was collected and stored at −80° C. until use. LDH, Protease, Superoxide dismutase (SOD), and Ribonuclease A (RNase A) activities were measured by using CytoTox 96® Non-Radioactive Cytotoxicity Assay kit (Promega, Madison, Wis.), Protease Fluorescent Detection kit (Sigma-Aldrich, Saint Louis, Mo.), SOD determination kit (Sigma-Aldrich, Saint Louis, Mo.), and Ribonuclease A Detection kit (Sigma-Aldrich, Saint Louis, Mo.), respectively, according to the manufacturer's instructions.

[3] = molecular target: T2, DNase II (Homo sapiens, UniProt O00115); test: Endonuclease screening assay, specificity; assay type: biochemical
T2 sequence (O00115 19-360): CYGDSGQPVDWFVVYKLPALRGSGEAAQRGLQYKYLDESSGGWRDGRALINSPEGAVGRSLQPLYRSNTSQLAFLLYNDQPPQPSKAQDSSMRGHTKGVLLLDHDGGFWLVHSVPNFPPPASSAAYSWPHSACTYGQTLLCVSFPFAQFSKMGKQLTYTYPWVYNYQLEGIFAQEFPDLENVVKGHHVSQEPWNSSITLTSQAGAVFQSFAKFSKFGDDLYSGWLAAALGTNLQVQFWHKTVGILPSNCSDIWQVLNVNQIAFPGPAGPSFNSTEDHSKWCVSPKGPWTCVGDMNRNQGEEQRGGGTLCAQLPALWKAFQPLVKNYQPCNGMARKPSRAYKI
Text: (§1) Specificity of a potential inhibitor is important for any in vitro or in vivo application, and generally defines the usefulness of an inhibitor. To determine specificity of the inhibitors for the two EndoG inhibitors, PNR-3-80 and PNR-3-82, their IC50 values for EndoG were compared using the screening assay with the IC50 values for two other endonucleases, DNase I and DNAse II (FIG. 11). These endonucleases were chosen because they represent the majority of endonuclease activity in most mammalian cells and because of their availability as pure enzymes.
(§2) A reaction mixture was prepared in each well of a white 96-well plate (Costar, Corning, N.Y.) as follows: 0.25 μM Cy5.5-labeled oligonucleotide (described in US provisional patent filed Oct. 19, 2012, Ser. No. 61/716,097) 0.3 mM MgCl2, 10 mM Tris-HCl, pH 7.4, 1 μl DMSO containing 5 or 50 ng of test compound, and nuclease-free water for a total reaction volume of 100 μl. The background (negative control) and uninhibited EndoG samples were measured using DMSO only, or DMSO containing recombinant EndoG (4 μg/ml), respectively. After addition of EndoG, fluorescence intensity was kinetically measured on a Bio-Tek Synergy 4.0 plate reader at 37° C. and mean velocity (mRFU/min) within 20 min was automatically calculated by the plate reader. The background was subtracted prior to the calculation of EndoG activity (%). The percent of EndoG activity was calculated from the mean velocity of a compound divided by the mean velocity of DMSO with recombinant EndoG, and the obtained value multiplied by 100.

[4] = molecular target: T3, DNase I (Homo sapiens, UniProt P24855); test: Endonuclease screening assay, specificity; assay type: biochemical
T3 sequence (P24855 23-282): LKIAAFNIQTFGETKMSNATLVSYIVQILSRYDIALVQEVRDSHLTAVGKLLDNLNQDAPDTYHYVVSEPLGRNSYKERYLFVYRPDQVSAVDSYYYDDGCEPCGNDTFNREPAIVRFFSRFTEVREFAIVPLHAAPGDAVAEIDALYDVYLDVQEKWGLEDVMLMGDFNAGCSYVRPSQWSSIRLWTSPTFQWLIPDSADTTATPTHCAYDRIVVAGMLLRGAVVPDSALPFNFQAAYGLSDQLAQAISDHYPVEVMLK
Text: as §1, §2

[5] = test system: EndoG-expressing PC3 cells; test: Cytoprotection against Docetaxel-induced cell death, LDH release and TUNEL assays; assay type: cell-based, human; details: Docetaxel 80 μM, inhibitor 50 μM
Description: Docetaxel is an anti-cancer drug used to treat prostate cancer. Human invasive prostate cancer PC3 cells are known to be resistant to anticancer drugs. […] The resulting EndoG-expressing PC3 cells were exposed with Docetaxel (80 μM) in the absence or presence of the inhibitors, PNR-3-80 or PNR-3-82 (50 μM each). The cell death was measured by using two methods, LDH release assay and TUNEL assay. […]

Compound: COc1ccc2c(c1)c(C=C1C(=O)NC(=S)NC1=O)cn2C(=O)c1ccc2ccccc2c1 [PNR-3-82]
- protection of supercoiled plasmid DNA from degradation by EndoG [1]: significantly protected the plasmid DNA from degradation
- LDH activity [2]: none of the two tested compounds had any inhibiting activity
- effect on DNase II activity [3]: did not have any effect
- pIC50 [4]: 4.20
- cytoprotection against Docetaxel-induced cell death [5]: cytoprotective
